Structures are written as SMILES. Like-named read-outs stand apart in the source and are kept apart here.

For data set [1], the system named is UPEC strain CFT073. In words: Antimicrobial susceptibility assay, UPEC grown in MOPS-glycerol. Format: cell-based, Escherichia coli. Particulars: UPEC CFT073 grown in MOPS-glycerol, 24 h, ± standard error; for MIC: Escherichia coli. The source says:
Unless otherwise noted, all reagents were obtained from commercial sources. BAP, 1, and N5-Pan analogs were synthesized according to previously reported procedures ([31], [53]). Urine was self-collected from adult males and females (not menstruating) between 24 and 57 years old (recruitment was open to donors 18–65 years old), who had not used anti-infectives or cranberry products for at least 7 days prior to collection. The collection protocol was approved by the Johns Hopkins University Institutional Review Boards under IRB study NA_00085130. Informed, written consent was obtained from all participants prior to collection. Urine was collected from at least 7 participants over 14 days, stored at 4°C upon collection, and then pooled, filter-sterilized, and frozen at −20°C. Urine Batch A included five male and three female donors with an average age of 33 years (range: 24–57). Urine Batch B included four male and five female donors with an average age of 26 years (range: 24–43). Samples from two donors (donations made at least 30 days apart) were included in both Batch A and Batch B. Urine Batch C included four male and three female donors with an average age of 27 years (range: 24–36). Urine Batch D included four male and three female donors with an average age of 27 years (range: 25–35). Solid urine agar plates were prepared by supplementing cooled 1.5% (wt/vol) agar with filter-sterilized urine in a 4:1 ratio. Liquid MOPS-glycerol was prepared by adding 10 × 3-(N-morpholino)propanesulfonic acid (MOPS) Buffer (Teknova) to water to a final 1× concentration, 1.32 mM K2HPO4, and 0.4% (vol/vol) glycerol and then filter-sterilizing. Unless otherwise noted, all media were supplemented with freshly prepared 20 µM FeSO4. OD600 analyses were performed on Mettler-Toledo UV5Bio UV/Visible spectrophotometer (Columbus, Ohio, USA). For antimicrobial studies, uropathogenic E. coli strain CFT073 (ATCC: BAA-2503) was provided by Kevin Schwartz from the lab of Rodney Welch. All manipulation of UPEC was conducted in a certified biosafety level 2 (BSL-2) laboratory while using BSL-2-associated safety procedures. Antimicrobial data were collected on a Biotek Epoch 2 microplate reader or a Biotek Synergy Neo 2 microplate reader. For metabolic stability studies, losartan potassium (PHR1602), used as an internal standard, was bought from Millipore Sigma (Burlington, MA). Methanol (A456-4) and acetonitrile (A955-4) were purchased from Fisher Chemical (Pittsburgh, PA). Water (9831-03) was purchased from JT Baker (Philipsburg, NJ). Dimethyl sulfoxide (DMSO)(154938-500mL) was purchased from Sigma Aldrich (St. Louis, MO). Mouse plasma (WT) was purchased from Innovative Research (Novi, MI). Mouse liver microsomes (M1000) were purchased from XenoTech LLC (Kansas City, KS).
All antimicrobial susceptibility assays were conducted as previously described using an aseptic technique with some modification ([7]). Briefly, 3–5 isolated colonies of CFT073 on LB agar or pooled urine agar were inoculated into 3 mL of liquid MOPS-glycerol medium or pooled urine, respectively, and grown overnight with shaking at 37°C. Saturated cultures were diluted 1:50 in fresh medium and grown to an OD600 of 0.4. These exponential phase cultures were then diluted 1:1,000 into fresh medium to yield the experimental inoculum, which was mixed 1:1 with medium containing 1 or N5-Pan analog at twice the desired final concentration in 96-well plates. The final concentration of bacteria in each well was approximately 10^5 CFU/mL in a final volume of 200 µL. The concentration ranges of compounds evaluated in MOPS-glycerol were: 1 (0–312.5 μM), 2 (0–100 μM), 3 (0–500 μM), 4–5 (0–2,000 μM), 6–7 (0–100 μM), and 8–12 (0-2,000 μM). Analogs 1, 6, and 7 were evaluated over a range of 0–4,000 μM in four batches of pooled human urine. The OD600 was monitored for 24 h (MOPS-glycerol) or 16 h (pooled urine) at 37°C with periodic shaking. […]

Data set [2] can be described thus: Phase I metabolic stability in mouse liver microsomes. The data set is classed as in vitro ADME. Particulars: for stability in mouse liver microsomes: n = 3; for remaining at 1 h, 1 µM: mouse, liver microsomes, pH 7.4, 1 h. As for the experimental part: Stability studies were conducted in mouse liver microsomes, mouse liver tissue homogenate, and CD1 mouse plasma as previously described with minor modifications ([54][–][56]). Briefly, for Phase I mouse liver microsome stability, reactions were carried out with 200 mM potassium phosphate buffer, pH 7.4, with or without an NADPH-regenerating system (1.3 mM NADPH, 3.3 mM glucose 6-phosphate, 3.3 mM MgCl2, 0.4 U/mL glucose-6-phosphate dehydrogenase, and 50 µM sodium citrate). Reactions, in triplicate, were initiated by the addition of liver microsomes to the incubation mixture (compound final concentration was 1 µM; 0.2 mg/mL microsomes) and incubated at 37°C for the desired incubation time. For liver stability, the tissue homogenate was prepared by washing tissues with diluted 10-fold 0.1 M potassium phosphate buffer and homogenized using a probe sonicator over ice. To evaluate the stability of the drugs over time, each of the crude homogenates was aliquoted to 1 mL and then spiked with a final assay concentration of 10 µM of each drug, followed by incubation in an orbital shaker at 37°C for 1 h (in triplicate). For plasma stability, 1 mL of plasma was spiked with 10 µM of each drug, followed by incubation in an orbital shaker at 37°C for 1 h (in triplicate). Samples from each metabolism study were quenched with 3× volume of acetonitrile containing internal standard (losartan: 0.5 µM) at the desired incubation times. […] Samples were vortex-mixed for 30 s and centrifuged at 10,000 × g for 10 min at 4°C. Compound disappearance over time was monitored using a Dionex ultra-high-performance liquid chromatography system consisting of an analytical pump and an autosampler coupled with Q Exactive Focus orbitrap mass spectrometer (Thermo Fisher Scientific Inc., Waltham MA). […] The mobile phase used was composed of 0.1% formic acid in water and 0.1% formic acid in acetonitrile with gradient elution. The total run time for each analyte was 5 min.
The mass spectrometer was operated with a HESI ion source in positive ionization mode where compounds were identified in the full scan mode (from m/z 75.00–1125.00) and controlled by the Xcalibur software 4.0.27.13 (Thermo Scientific). Data were acquired using Xcalibur software. Drugs were identified in the full-scan mode (from m/z 75.00 to 1125.00) by comparing t = 0 samples with t = 30 or 60 min samples, and structures were proposed based on the accurate mass information. The percentage of compound remaining for pantothenamides 1, 6, and 7 was determined from the analyte/internal standard (IS) area ratios obtained at t = 30 or 60 min relative to the mean ratios obtained at t = 0 min and calculated using equation 1:
% Remaining=(Peak area of Analyte/Preak area of ISat t=30 or 60 min/MeanPeak area of Analyte/Peak area of ISat t=0 min)×100

Take `CCCCCNC(=O)CNC(=O)[C@H](O)C(C)(C)CO` [compound 6, N5-α-pantothenamide]: in data set [1], the MIC was found to be 6.25 µM and the “MIC MOPS-glycerol” value is 6.25 ± 0.00 µM. Besides, in data set [2] (1 h, with NADPH, 1 µM compound, 0.2 mg/mL microsomes), the “% remaining in mouse liver microsomes, presence of NADPH” value was “no degradation”. The “% remaining in mouse liver microsomes, absence of NADPH” value in data set [2] (1 h, without NADPH, 1 µM compound, 0.2 mg/mL microsomes) is on record as “no degradation”. In addition, the “stability in mouse liver microsomes” value in data set [2] was “good stability”.

For `CCCCCNC(=O)CCNC(=O)[C@H](O)C(C)(C)CO` [compound 1, N-pentylpantothenamide, reference compound], in data set [1], the minimal inhibitory concentration (MIC) is 2.44 µM and the “MIC MOPS-glycerol” value was found to be 2.44 ± 0.00 µM. In addition, the share remaining at 1 h, 1 µM in data set [2] (with NADPH, 1 µM compound, 0.2 mg/mL microsomes, read-out: % remaining in mouse liver microsomes, presence of NADPH) came to 90%. Further, in data set [2] (without NADPH, 1 µM compound, 0.2 mg/mL microsomes, read-out: % remaining in mouse liver microsomes, absence of NADPH), the amount remaining at 1 h, 1 µM is 93%. In data set [2], the “stability in mouse liver microsomes” value was “good stability”.

The record behind these values is paper PMC12323621, “Exploring the antimicrobial activity of pantothenamides against uropathogenic Escherichia coli” (Microbiology Spectrum, 2025).
